Data from patent US5068354A, “Epoxysuccinic acid derivatives” (Taisho Pharmaceutical Co., Ltd., priority 1989, dated 1991).

Key:
Type in all cases: biochemical
CANP (μCANP, Calpain I) = target: T1, CANP (μCANP, Calpain I) (Homo sapiens, UniProt P07384); experiment: Inhibitory Activity against CANP; settings: alkali-denatured casein, pH 7.5, preincubated 30° C. 5 min, incubation 20 min, read-out: concentration of the test drug required for 50% inhibition (IC50)
T1 construct: purchased Nacalai Tesque Inc
T1 sequence (P07384 1-714): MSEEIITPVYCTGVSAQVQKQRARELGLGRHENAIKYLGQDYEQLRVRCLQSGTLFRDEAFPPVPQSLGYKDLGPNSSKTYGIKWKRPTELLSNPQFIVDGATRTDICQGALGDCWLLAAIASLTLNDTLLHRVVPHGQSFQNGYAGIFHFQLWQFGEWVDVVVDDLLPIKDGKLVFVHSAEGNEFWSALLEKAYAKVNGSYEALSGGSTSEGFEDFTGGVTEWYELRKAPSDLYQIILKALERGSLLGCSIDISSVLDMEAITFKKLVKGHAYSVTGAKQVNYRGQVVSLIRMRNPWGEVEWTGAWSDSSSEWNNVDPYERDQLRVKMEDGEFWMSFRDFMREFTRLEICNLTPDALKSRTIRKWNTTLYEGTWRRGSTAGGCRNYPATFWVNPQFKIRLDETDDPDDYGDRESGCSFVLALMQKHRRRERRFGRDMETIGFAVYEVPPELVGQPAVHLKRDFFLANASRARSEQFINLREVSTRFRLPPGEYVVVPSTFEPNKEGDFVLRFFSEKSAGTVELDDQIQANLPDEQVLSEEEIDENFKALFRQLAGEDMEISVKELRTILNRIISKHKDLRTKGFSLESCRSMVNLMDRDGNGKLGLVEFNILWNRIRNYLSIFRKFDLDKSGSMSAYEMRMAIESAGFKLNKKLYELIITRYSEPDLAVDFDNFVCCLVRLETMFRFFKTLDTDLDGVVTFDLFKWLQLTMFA
T1 sequence (P04632 1-268 partner): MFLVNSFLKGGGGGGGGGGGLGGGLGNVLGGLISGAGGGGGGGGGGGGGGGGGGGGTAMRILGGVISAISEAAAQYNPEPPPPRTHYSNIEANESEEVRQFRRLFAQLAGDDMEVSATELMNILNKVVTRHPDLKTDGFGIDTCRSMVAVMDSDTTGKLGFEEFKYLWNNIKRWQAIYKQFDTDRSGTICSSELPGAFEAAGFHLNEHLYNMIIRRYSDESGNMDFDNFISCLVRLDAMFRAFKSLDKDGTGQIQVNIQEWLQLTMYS
Procedure: Test example 1 [Inhibitory Activity against CANP]
The activity was measured according to the method of S. Ishiura et al [J. Biochem., vol. 84, page 225 (1978)].
Each of 0.45 ml of the reaction solutions containing 25 mM 2-mercaptoethanol, 5 mM calcium chloride, 0.1 M sodium glycerophosphate-HCl (pH 7.5), 0.24% alkali-denatured casein, 1% dimethyl sulfoxide and various concentrations of the test drug was preincubated at 30° C. for 5 minutes, and 5 μg of μCANP (50 μg) (Calpain I, Nacalai Tesque Inc.) was added or starting the reaction. After incubation at 30° C. for 20 minutes, the reaction was stopped by addition of 0.5 ml of 10% trichloroacetic acid. After allowing to stand at room temperature for 60 minutes, the mixture was centrifuged at 3000×g for 5 minutes, and the absorbance at 280 nm of the supernatant was determined. The remaining activity was obtained by reducing the blank value which was obtained in a similar manner to the above but adding 10% trichloroacetic acid prior to addition of μCANP from the above value. The concentration of the test drug required for 50% inhibition (IC50) was calculated from the inhibition rate obtained using the value which was measured in a similar manner to the above but without the test drug. The IC50 value of the compound obtained in Example 5 was more than 200,000 nM.

cathepsin B = experiment: Inhibitory Activity against Cathepsin B; settings: pH 6.0, preincubated 40° C. 10 min, incubation 10 min
Procedure: The activity was measured according to the method of A.J. Barrett et al [Biochem. J., vol.
To each of 0.95 ml of the reaction solutions containing 2.5 mM 2-mercaptoethanol, 1 mM disodium ethylenediaminetetraacetate, 0.1 M sodium potassium phosphate buffer (pH 6.0), 0.1% brij-35 (Nacalai Tesque Inc.), 1% dimethyl sulfoxide and different concentrations of the test drug was added 25 μl of 200 nM cathepsin B solution (Sigma Chemical Co.), and the mixture was preincubated for 40° C. for 10 minutes, after which 25 μl of 200 µM benzyloxycarbonyl L-phenylaranyl-L-arginine 4-methylcoumaryl-7-amide (Peptide Institute Inc.) was added for starting the reaction. After incubation at 40° C. for 10 minutes, the reaction was stopped by addition of 1 ml of 100 mM sodium chloroacetate in 100 mM sodium acetate (pH 4.3) The fluorescence of the liberated 7-amino-4-methylcoumarine was determined using a Shimazu fluorimeter RP-5000 with excitation at 380 n and emission measured at 440 nm. […] Chosen as a comparative drug is N-(L-3-trans-carboxy-oxirane-2-carbonyl)-L-isoleucyl-L-proline methyl ester which is included within the structural formula of the above U.K. Patent and is the closest compound to the compound of formula I in the structure.

papain = target: T2, papain (Carica papaya, UniProt P00784); experiment: Inhibitory Activity against Papain; settings: pH 6.8, preincubated 40° C. 3 min, incubation 10 min, read-out: concentration of the test drug required for 50% inhibition (IC50)
T2 construct: purchased Sigma Chemical Co
T2 sequence (P00784 134-345): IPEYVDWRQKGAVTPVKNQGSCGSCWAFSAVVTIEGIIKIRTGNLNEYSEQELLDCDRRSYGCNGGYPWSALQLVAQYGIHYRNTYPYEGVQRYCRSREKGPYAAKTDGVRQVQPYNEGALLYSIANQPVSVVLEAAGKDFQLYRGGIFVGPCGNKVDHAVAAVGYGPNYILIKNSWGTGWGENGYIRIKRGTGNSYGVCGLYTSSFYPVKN
Procedure: Test example 2 [Inhibitory Activity against Papain]
The activity was measured according to the method of A.J. Barrett et al [Biochem. J., vol. 201, page 189, (1982)].
To each of 0.95 ml of the reaction solutions containing 2.5 mM 2-mercaptoethanol, 1 mM disodium ethylenediaminetetraacetate, 0.1 M sodium potassium phosphate (pH 6.8), 0.1% brij-35 (Nacalai Tesque Inc.), 1% dimethyl sulfoxide and the various concentrations of the test drug was added 25 μl of 400 nM papain solution (Sigma Chemical Co.), and the mixture was preincubated for 40° C. for 3 minutes, after which 25 μof 200 μM benzyloxycarbonyl-L-phenylaranyl-L-arginine 4-methyl-coumaryl-7-amide (Peptide Institute Inc.) was added for starting the reaction. After incubation at 40° C. for 10 minutes, the reaction was stopped by addition of 1 ml of 100 mM sodium chloroacetate in 100 mM sodium acetate (pH 4.3). The fluorescence of the liberated 7-amino-4-methylcoumarine was determined using a Shimazu fluorimeter RF-5000 with excitation at 380 nm and emission measured at 440 nm. The concentration of the test drug required for 50% inhibition (IC50) was calculated from the inhibiting rate calculated using the value which was measured in a similar manner to the above but without the test drug.

Structure (SMILES)	IC50 (CANP (μCANP, Calpain I))	IC50 (cathepsin B)	IC50 (papain)
CCOC(=O)[C@H]1O[C@@H]1C(=O)N[C@H](C(=O)N1CCC[C@H]1C(=O)O)[C@@H](C)CC [Example 5, N-(L-3-trans-ethoxycarbonyl-oxirane-2-carbonyl)-L-isoleucyl-L-proline]	> 200 µM	120 nM	16 µM
CC[C@H](C)[C@H](NC(=O)[C@H]1O[C@@H]1C(=O)O)C(=O)N1CCC[C@H]1C(=O)OC [Reference Example, N-(L-3-trans-carboxyoxirane-2-carbonyl)-L-isoleucyl-L-proline methyl ester, reference compound]		8800 nM	
